Laboratory results from patent publication US10273233B2, “Inhibitors of influenza viruses replication” (Vertex Pharmaceuticals Incorporated, priority 2015, dated 2019).

Columns and labels:
[1] = test system: A/WS/33; assay: 3-day CP assay in MDCK cells; assay type: cell-based; conditions: Influenza A virus
[2] = test system: A/NWS/33; assay: 3-day CP assay in MDCK cells; assay type: cell-based, influenza A; conditions: Influenza A virus, MDCK
[3] = test system: A/Puerto Rico/8/34; assay: 3-day CP assay in MDCK cells; assay type: cell-based; conditions: Influenza A virus
[4] = test system: A/Weiss/43; assay: 3-day CP assay in MDCK cells; assay type: cell-based; conditions: Influenza A virus
[5] = test system: A/FM/1/47; assay: 3-day CP assay in MDCK cells; assay type: cell-based; conditions: Influenza A virus
[6] = test system: A/Mal/302/54; assay: 3-day CP assay in MDCK cells; assay type: cell-based; conditions: Influenza A virus
[7] = test system: A/Denver/1/57; assay: 3-day CP assay in MDCK cells; assay type: cell-based; conditions: Influenza A virus
[8] = test system: A/Aichi/2/68; assay: 3-day CP assay in MDCK cells; assay type: cell-based; conditions: Influenza A virus
[9] = test system: A/Hong Kong/8/68; assay: 3-day CP assay in MDCK cells; assay type: cell-based; conditions: Influenza A virus
[10] = test system: A/Port Chalmers/1/73; assay: 3-day CP assay in MDCK cells; assay type: cell-based; conditions: Influenza A virus
[11] = test system: A/Victoria/3/75; assay: 3-day CP assay in MDCK cells; assay type: cell-based; conditions: Influenza A virus
[12] = test system: A/New Jersey/8/76; assay: microbe, parasite or virus in culture; assay type: cell-based; conditions: Influenza A virus, MDCK
[13] = test system: A/Wisconsin/67/2005; assay: 3-day CP assay in MDCK cells; assay type: cell-based; conditions: Influenza A virus
[14] = test system: A/Chelyabinsk/1/200; assay: 3-day CP assay in MDCK cells; assay type: cell-based; conditions: Influenza A virus
[15] = test system: A/Fukushima/141/2006; assay: 3-day CP assay in MDCK cells; assay type: cell-based; conditions: Influenza A virus
[16] = test system: A/Georgia/17/2006; assay: 3-day CP assay in MDCK cells; assay type: cell-based; conditions: Influenza A virus
[17] = test system: A/Georgia/20/2006; assay: 3-day CP assay in MDCK cells; assay type: cell-based, influenza A; conditions: Influenza A virus, MDCK
[18] = test system: A/Hawaii/2/2006; assay: 3-day CP assay in MDCK cells; assay type: cell-based; conditions: Influenza A virus
[19] = test system: A/Missouri/3/2006; assay: 3-day CP assay in MDCK cells; assay type: cell-based; conditions: Influenza A virus
[20] = test system: A/Nebraska/1/2006; assay: 3-day CP assay in MDCK cells; assay type: cell-based; conditions: Influenza A virus
[21] = test system: A/Santiago/7981/2006; assay: 3-day CP assay in MDCK cells; assay type: cell-based; conditions: Influenza A virus
[22] = test system: A/St. Petersburg8/2006; assay: 3-day CP assay in MDCK cells; assay type: cell-based; conditions: Influenza A virus
[23] = test system: A/Virginia/01/2006; assay: 3-day CP assay in MDCK cells; assay type: cell-based; conditions: Influenza A virus
[24] = test system: A/Cambodia0371/2007; assay: 3-day CP assay in MDCK cells; assay type: cell-based; conditions: Influenza A virus
[25] = test system: A/Henan/Jinshui/147/2007; assay: 3-day CP assay in MDCK cells; assay type: cell-based; conditions: Influenza A virus
[26] = test system: A/South Dakota/6/2007; assay: 3-day CP assay in MDCK cells; assay type: cell-based; conditions: Influenza A virus
[27] = test system: A/Texas/12/2007; assay: 3-day CP assay in MDCK cells; assay type: cell-based; conditions: Influenza A virus
[28] = test system: A/Uruguay/716/2007; assay: 3-day CP assay in MDCK cells; assay type: cell-based; conditions: Influenza A virus
[29] = test system: A/California/07/2009; assay: 3-day CP assay in MDCK cells; assay type: cell-based; conditions: Influenza A virus, MDCK; A/California/07/2009
[30] = test system: A/California/07/2009 NYMC, X-179A; assay: 3-day CP assay in MDCK cells; assay type: cell-based; conditions: Influenza A virus
[31] = test system: A/Mexico/4108/2009; assay: 3-day CP assay in MDCK cells; assay type: cell-based; conditions: Influenza A virus
[32] = test system: A/New York/18/2009; assay: 3-day CP assay in MDCK cells; assay type: cell-based; conditions: Influenza A virus
[33] = test system: A/Texas/48/2009; assay: 3-day CP assay in MDCK cells; assay type: cell-based; conditions: Influenza A virus
[34] = test system: A/Virginia/ATCC2/2009; assay: 3-day CP assay in MDCK cells; assay type: cell-based; conditions: Influenza A virus
[35] = test system: A/Virginia/ATCC3/2009; assay: 3-day CP assay in MDCK cells; assay type: cell-based; conditions: Influenza A virus
[36] = test system: A/Swine/Iowa/15/30; assay: microbe, parasite or virus in culture; assay type: cell-based, influenza A; conditions: Influenza A virus, MDCK, in Sus scrofa
[37] = test system: A/Swine/1976/31; assay: microbe, parasite or virus in culture; assay type: cell-based; conditions: Influenza A virus, MDCK, in Sus scrofa
[38] = test system: A/Equine/Miami/63; assay: microbe, parasite or virus in culture; assay type: cell-based; conditions: Influenza A virus, MDCK
[39] = test system: B/Lee/40; assay: 3-day CP assay in MDCK cells; assay type: cell-based; conditions: Influenza B virus
[40] = test system: B/Mass/3/66; assay: 3-day CP assay in MDCK cells; assay type: cell-based; conditions: Influenza B virus
[41] = test system: B/Russia/69; assay: 3-day CP assay in MDCK cells; assay type: cell-based; conditions: Influenza B virus
[42] = test system: B/Memphis/20/1996--070; assay: 3-day CP assay in MDCK cells; assay type: cell-based; conditions: Influenza B virus
[43] = test system: B/Memphis/20/1996--071; assay: 3-day CP assay in MDCK cells; assay type: cell-based; conditions: Influenza B virus

With `CCC(CC)O[C@@H]1C=C(C(=O)O)C[C@H](N)[C@H]1NC(C)=O` [Oseltamivir Carboxylate] the EC50 [1] was greater than 10 µM, the EC50 [2] was greater than 10 µM and the EC50 [3] was greater than 10 µM. For the same molecule, the EC50 [4] was 0.49 µM, the EC50 [5] was 6.4 µM and the EC50 [6] was 1.1 µM. The EC50 [7] was greater than 10 µM, the EC50 [8] was 5 µM and the EC50 [9] was 0.038 µM. The EC50 [10] was 0.12 µM, the EC50 [11] was greater than 10 µM and the EC50 [12] was 3.8 µM. It also gave an EC50 [13] of 0.35 µM, an EC50 [14] greater than 10 µM and an EC50 [15] of 0.58 µM. It also gave an EC50 [16] greater than 10 µM, an EC50 [17] greater than 10 µM and an EC50 [18] greater than 10 µM. It also gave an EC50 [19] of 2.5 µM, an EC50 [20] greater than 10 µM and an EC50 [21] greater than 10 µM. It also gave an EC50 [22] of 9.3 µM, an EC50 [23] of 0.83 µM and an EC50 [24] of 7.8 µM. It also gave an EC50 [25] greater than 10 µM, an EC50 [26] of 8.2 µM and an EC50 [27] of 8.5 µM. The EC50 [28] was greater than 10 µM, the EC50 [29] was greater than 10 µM and the EC50 [30] was greater than 10 µM. The EC50 [31] was greater than 10 µM, the EC50 [32] was 0.16 µM and the EC50 [33] was greater than 10 µM. It also gave an EC50 [34] greater than 10 µM, an EC50 [35] greater than 10 µM and an EC50 [36] of 7.8 µM. It also gave an EC50 [37] of 0.56 µM, an EC50 [38] of 0.25 µM and an EC50 [39] greater than 10 µM. For the same molecule, the EC50 [40] was 6.7 µM, the EC50 [41] was 6 µM and the EC50 [42] was greater than 10 µM. The EC50 [43] was greater than 10 µM.

With `CC(=O)N[C@H]1[C@H]([C@H](O)[C@H](O)CO)OC(C(=O)O)=C[C@@H]1N=C(N)N` [Zanamivir] the EC50 [1] was greater than 10 µM, the EC50 [2] was greater than 10 µM and the EC50 [3] was greater than 10 µM. It also gave an EC50 [4] of 0.08 µM, an EC50 [5] of 2.6 µM and an EC50 [6] of 0.28 µM. The EC50 [7] was greater than 10 µM, the EC50 [8] was greater than 10 µM and the EC50 [9] was 0.15 µM. The EC50 [10] was 0.67 µM, the EC50 [11] was 4.1 µM and the EC50 [12] was 6.2 µM. It also gave an EC50 [13] of 0.16 µM, an EC50 [14] of 7.6 µM and an EC50 [15] of 0.27 µM. For the same molecule, the EC50 [16] was greater than 10 µM, the EC50 [17] was 4.3 µM and the EC50 [18] was greater than 10 µM. The EC50 [19] was 3.6 µM, the EC50 [20] was greater than 10 µM and the EC50 [21] was 4 µM. The EC50 [22] was 6 µM, the EC50 [23] was 0.83 µM and the EC50 [24] was 2.1 µM. It also gave an EC50 [25] greater than 10 µM, an EC50 [26] of 3.4 µM and an EC50 [27] of 8.2 µM. The EC50 [28] was 4.7 µM, the EC50 [29] was greater than 10 µM and the EC50 [30] was 5.6 µM. It also gave an EC50 [31] of 3.8 µM, an EC50 [32] of 0.31 µM and an EC50 [33] of 1.7 µM. For the same molecule, the EC50 [34] was greater than 10 µM, the EC50 [35] was greater than 10 µM and the EC50 [36] was 1.8 µM. For the same molecule, the EC50 [37] was 0.25 µM, the EC50 [38] was 0.93 µM and the EC50 [39] was greater than 10 µM. The EC50 [41] was 3.1 µM, the EC50 [42] was 2.6 µM and the EC50 [43] was 6 µM.
